Where two headings read alike, the source gives them in different places.
Tests used:
[1] = target: T1, HSV1 uracil-DNA glycosylase (HSV1 UDG) (Human herpesvirus 1, UniProt P10186); assay: Inhibition of HSV1 uracil-DNA glycosylase, [3H]uracil release from [3H]dUMP-containing DNA; format: biochemical; conditions: for Activity against viral UDG: at 200 μM; for Potency against HSV1 UDG relative to parent compound: hexAU derivatives vs 4, octAU derivatives vs 5
T1 construct: made in house
Method: (§1) Compounds 2-8 were screened against purified HSV1 and human (HeLa) uracil-DNA glycosylases which were isolated by conventional enzyme purification protocols^1. Assays for inhibition by the compounds were conducted as described in the literature^1 by measuring [^3 H]uracil release from [^3 H]dUMP-containing DNA, in the presence of varying concentrations of test compounds. Control assays contained the same concentration of diluent, dimethylsulfoxide. IC50 s (the concentration of compound that causes half-maximal inhibition of [^3 H]uracil release from [^3 H]dUMP-containing DNA) for each of the compounds were calculated.
(§2) a. Isolation and assay of uracil-DNA glycosylases. The viral and human (HeLa) uracil-DNA glycosylases are isolated with conventional enzyme purification protocols (Focher et al., 1993). Both long and short forms of the HSV1 enzyme have been cloned and expressed in E. Coli (Argnani et al., 1995), and have essentially identical enzymatic properties and inhibitor sensitivities. Assays for new inhibitors of viral and human UDG are done as described (Focher et al., 1993) by measuring [^3 H]uracil release from [^3 H]dUMP-DNA. Mechanism studies involve classical variable substrate assays to determine if inhibition is competitive with substrate or product.

[2] = target: T2, human (HeLa) uracil-DNA glycosylase (Homo sapiens, UniProt P13051); conditions: cited from earlier work; for IC50: compounds 4 and 5, from Focher et al., 1993, read-out: IC50 Human-UDG
T2 construct: The viral and human (HeLa) uracil-DNA glycosylases are isolated with conventional enzyme purification protocols; endogenous in cells; host or cells: HeLa
T2 sequence (P13051 whole entry): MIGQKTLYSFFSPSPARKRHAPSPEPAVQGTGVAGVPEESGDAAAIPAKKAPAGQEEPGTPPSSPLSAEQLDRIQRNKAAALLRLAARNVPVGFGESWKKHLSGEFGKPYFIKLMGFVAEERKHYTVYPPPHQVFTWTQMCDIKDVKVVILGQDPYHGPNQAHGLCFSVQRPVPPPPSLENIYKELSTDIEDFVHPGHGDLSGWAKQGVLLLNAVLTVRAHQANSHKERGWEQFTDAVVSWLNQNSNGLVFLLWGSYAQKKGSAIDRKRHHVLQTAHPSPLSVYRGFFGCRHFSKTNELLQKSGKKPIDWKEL

[3] = target: T1, HSV1 uracil-DNA glycosylase (HSV1 UDG); conditions: cited from earlier work
[4] = Solubility observations (assay medium, water); format: physicochemical
[5] = target: T2, human (HeLa) uracil-DNA glycosylase; assay: Inhibition of human (HeLa) uracil-DNA glycosylase, [3H]uracil release from [3H]dUMP-containing DNA; format: biochemical; conditions: Table 3; read-out: IC50 Human-UDG
Method: as §1, §2

[6] = Table 1, from literature (footnote a), read-out: IC50
[7] = compounds 4 and 5, from Focher et al., 1993, read-out: IC50 HSV1-UDG
[8] = Table 2, read-out: IC50, experimental value
[9] = Table 3, read-out: IC50 HSV1-UDG

T1 sequence (P10186 whole entry): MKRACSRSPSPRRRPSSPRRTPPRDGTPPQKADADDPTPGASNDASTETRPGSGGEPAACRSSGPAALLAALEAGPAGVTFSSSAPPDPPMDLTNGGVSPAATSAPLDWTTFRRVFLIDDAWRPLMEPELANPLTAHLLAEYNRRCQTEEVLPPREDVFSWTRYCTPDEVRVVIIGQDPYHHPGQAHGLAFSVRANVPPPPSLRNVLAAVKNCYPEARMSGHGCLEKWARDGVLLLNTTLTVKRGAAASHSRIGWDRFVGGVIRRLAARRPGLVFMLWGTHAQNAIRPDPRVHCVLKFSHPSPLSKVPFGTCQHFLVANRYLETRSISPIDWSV

CCCCCCc1ccc(Nc2cc(=O)n(CC)c(=O)[nH]2)cc1 [3-ethyl-6-(4-n-hexylanilino)uracil]
Activity against viral UDG [1]: inactive

Nc1cc(=O)[nH]c(=O)[nH]1 [6-Aminouracil, reference compound]
IC50 ([1]; text b184, read-out: IC50 HSV1 UDG): 1000 µM | Inhibition of human UDG ([2]; reported (Caradonna et al, 1981)): inhibit weakly

CCCCCCc1ccc(Nc2[nH]c(=O)[nH]c(=O)c2C)cc1 [(4-n-hexylanilino)thymine, 6-(4-Hexylanilino)thymine]
Activity against viral UDG [1]: inactive

CCc1ccc(Nc2cc(O)nc(O)n2)cc1 [Compound 2]
IC50 [3, 6]: 500 µM

CCCCCCc1ccc(Nc2cc(O)nc(O)n2)cc1 [Compound 4, 6-(4-n-Hexylanilino)uracil]
IC50 [3, 6]: 30 µM | IC50 [3, 7]: 30 µM | IC50 [2]: > 300 µM

CCCCCCCCc1ccc(Nc2cc(=O)[nH]c(=O)[nH]2)cc1 [Compound 5, 6-(4-n-octylanilino)uracil]
Mode of inhibition of HSV1 UDG [1]: competitive with DNA | Water solubility [4]: poor water solubility | IC50 [3, 6]: 8 µM | IC50 [3, 7]: 8 µM | IC50 [2]: > 300 µM

CCCCCCCCCCc1ccc(Nc2cc(O)nc(O)n2)cc1 [Compound 6, 6-(4-Decylanilino)uracil]
IC50 [1, 8]: 35 µM | IC50 [5]: > 200 µM

CCCCCCOc1ccc(Nc2cc(O)nc(O)n2)cc1 [Compound 7, 6-(4-Hexyloxyanilino)uracil]
IC50 [1, 8]: 30 µM

CCCCCCCCOc1ccc(Nc2cc(O)nc(O)n2)cc1 [Compound 8, 6-(4-Octyloxyanilino)uracil]
IC50 [1, 8]: 25 µM

CCCCCCCCc1ccc(Oc2cc(=O)[nH]c(=O)[nH]2)cc1 [Compound 9, 6-(4-Octylphenoxy)uracil]
IC50 ([1]; read-out: IC50, experimental value): 150 µM | IC50 [5]: > 300 µM

CCCCCCc1ccc(Nc2cc(=O)[nH]c(=O)n2C)cc1 [Compound 16, 1-Methyl-6-(4-hexylanilino)uracil]
IC50 [5]: > 200 µM

CCCCCCc1ccc(Nc2cc(=O)[nH]c(=O)n2CC)cc1 [Compound 17, 1-Ethyl-6-(4-hexylanilino)uracil]
IC50 [5]: > 200 µM

CCCCCCc1ccc(Nc2cc(=O)[nH]c(=O)n2CCC)cc1 [Compound 18, 1-Propyl-6-(4-hexylanilino)uracil]
IC50 [5]: > 200 µM

CCCCCCc1ccc(Nc2cc(=O)[nH]c(=O)n2CCOC)cc1 [Compound 19, 1-(2-Methoxyethyl)-6-(4-hexylanilino)uracil]
IC50 [1, 9]: > 100 µM

CCCCCCc1ccc(Nc2cc(=O)[nH]c(=O)n2CCCOC)cc1 [Compound 20, 1-(3-Methoxypropyl)-6-(4-hexylanilino)uracil]
IC50 [1, 9]: > 100 µM

CCCCCCc1ccc(Nc2cc(=O)[nH]c(=O)n2CCO)cc1 [Compound 21, 1-(2-Hydroxyethyl)-6-(4-hexylanilino)uracil]
IC50 [1, 9]: 20 µM | Potency against HSV1 UDG relative to parent compound [1]: equipotent with 4

CCCCCCc1ccc(Nc2cc(=O)[nH]c(=O)n2CCCO)cc1 [Compound 22, 1-(3-Hydroxypropyl)-6-(4-hexylanilino)uracil]
Potency against HSV1 UDG, fold weaker than 4 [1]: 3 fold | IC50 ([1]; read-out: IC50 HSV1-UDG): 90 µM

CCCCCCCCc1ccc(Nc2cc(=O)[nH]c(=O)n2CCOC)cc1 [Compound 24, 1-(2-Methoxyethyl)-6-(4-octylanilino)uracil]
IC50 [1, 9]: 15 µM | Potency against HSV1 UDG relative to parent compound [1]: nearly as potent

CCCCCCCCc1ccc(Nc2cc(=O)[nH]c(=O)n2CCO)cc1 [Compound 25, 1-(2-Hydroxyethyl)-6-(4-octylanilino)uracil]
IC50 [1, 9]: 10 µM | Potency against HSV1 UDG relative to parent compound [1]: as a potent an inhibitor as 5

O=c1cc[nH]c(=O)[nH]1 [uracil]
Mode of inhibition of human UDG ([2]; reported (Griffiths 1995)): non-competitive

From US6177437A, “Inhibitors of Herpes Simplex virus uracil-DNA glycosylase” (University of Massachusetts Medical Center, priority 1999, dated 2001)
